Consider 14 compounds from ChEMBL document CHEMBL5634165, “Design, synthesis and activity evaluation of quinolinone derivatives as EZH2 inhibitors” (Bioorg Med Chem Lett, 2024).

Assay [1] has as its target T1, Histone-lysine N-methyltransferase EZH2 (Homo sapiens, UniProt Q15910). Nature of the assay: Inhibition of EZH2 (unknown origin).
Target sequence in this assay (Q15910 whole entry): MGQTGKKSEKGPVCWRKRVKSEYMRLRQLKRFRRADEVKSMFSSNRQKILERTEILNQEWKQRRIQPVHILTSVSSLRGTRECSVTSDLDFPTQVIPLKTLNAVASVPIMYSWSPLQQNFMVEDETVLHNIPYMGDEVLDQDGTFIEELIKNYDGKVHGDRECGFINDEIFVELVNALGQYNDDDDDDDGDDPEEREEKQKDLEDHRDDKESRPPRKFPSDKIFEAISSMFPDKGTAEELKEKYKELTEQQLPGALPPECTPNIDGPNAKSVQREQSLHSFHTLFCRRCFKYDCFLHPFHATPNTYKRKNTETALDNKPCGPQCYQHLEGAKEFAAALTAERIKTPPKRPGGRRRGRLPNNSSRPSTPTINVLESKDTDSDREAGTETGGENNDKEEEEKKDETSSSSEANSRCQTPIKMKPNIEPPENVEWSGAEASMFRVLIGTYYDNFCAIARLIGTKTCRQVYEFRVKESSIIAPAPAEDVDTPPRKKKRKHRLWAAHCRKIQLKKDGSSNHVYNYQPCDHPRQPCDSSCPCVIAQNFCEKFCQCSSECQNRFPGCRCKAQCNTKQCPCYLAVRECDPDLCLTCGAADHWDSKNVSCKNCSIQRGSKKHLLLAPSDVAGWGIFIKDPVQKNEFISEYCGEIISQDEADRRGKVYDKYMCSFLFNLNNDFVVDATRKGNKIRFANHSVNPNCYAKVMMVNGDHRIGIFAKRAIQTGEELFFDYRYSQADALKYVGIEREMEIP
For assay [2], the target named is Histone-lysine N-methyltransferase EZH2 (Homo sapiens, UniProt Q15910, Y641F). The experiment in a line: Inhibition of EZH2 Y641F mutant (unknown origin).
Sequence of Histone-lysine N-methyltransferase EZH2 (Homo sapiens, UniProt Q15910, Y641F) (Q15910 whole entry Y641F): as the sequence (Q15910 whole entry) above, with Y641F counted along it
Assay [3] has as its system HeLa. Nature of the assay: Antiproliferative activity against human HeLa cells by MTT assay. Format: functional, cell-based.
In assay [4] the test system is A549. The experiment in a line: cells. The following applies: Homo sapiens.
Description: Antiproliferative activity against human A549 cells by MTT assay
The subject of assay [5] is A549. Nature of the assay: Inhibition of colony formation in human A549 cells assessed as clone formation rate relative to control. Format: functional. Set-up: concentration or dose not given beside the values.
The subject of assay [6] is HeLa. Nature of the assay: Inhibition of colony formation in human HeLa cells assessed as clone formation rate relative to control. Format: functional. The arrangement: scale not given: the % may be the effect or the level left.
The subject of assay [7] is A549. Nature of the assay: Induction of apoptosis in human A549 cells assessed as viable cells incubated for 24 hrs by Annexin V/PI staining based flow cytometry analysis (reference value: 91.6 %). Format: functional.
In assay [8] the test system is A549. The experiment in a line: Induction of apoptosis in human A549 cells assessed as early apoptotic cells incubated for 24 hrs by Annexin V/PI staining based flow cytometry analysis (reference value: 1.17 %). Format: functional.
Assay [9] concerns A549. The experiment in a line: Induction of apoptosis in human A549 cells assessed as late apoptotic cells incubated for 24 hrs by Annexin V/PI staining based flow cytometry analysis (reference value: 5.03 %). In kind it is functional.
The test system of assay [10] is A549. The experiment in a line: Induction of apoptosis in human A549 cells assessed as necrotic cells incubated for 24 hrs by Annexin V/PI staining based flow cytometry analysis (reference value: 1.35 %). In kind it is functional.
Assay [11] deals with HeLa. The experiment in a line: Induction of apoptosis in human HeLa cells assessed as viable cells by Annexin V/PI staining based flow cytometry analysis (reference value: 91.0 %). In kind it is functional.
Assay [12] has as its system HeLa. Nature of the assay: Induction of apoptosis in human HeLa cells assessed as early apoptotic cells by Annexin V/PI staining based flow cytometry analysis (reference value: 1.72 %). Format: functional.
Assay [13] has as its system HeLa. The experiment in a line: Induction of apoptosis in human HeLa cells assessed as late apoptotic cells by Annexin V/PI staining based flow cytometry analysis (reference value: 6.46 %). Format: functional.
Assay [14] deals with HeLa. The experiment in a line: Induction of apoptosis in human HeLa cells assessed as nectrotic cells by Annexin V/PI staining based flow cytometry analysis (reference value: 0.782 %). Format: functional.
The test system of assay [15] is HeLa. Nature of the assay: Inhibition of cell migration in human HeLa cells assessed as reduction of cell scratch width incubated for 24 hrs. In kind it is functional, cell-based.
Assay [16] addresses T1, Histone-lysine N-methyltransferase EZH2. The experiment in a line: Inhibition of EZH2 in human A549 cells assessed as reduction in H3K27me3 expression level at 3 uM incubated for 72 hrs by Western blotting analysis. In kind it is cell-based.
Target sequence in this assay (Q15910 whole entry, looked up): as the sequence (Q15910 whole entry) above
The target is the same in assay [17]. Nature of the assay: Inhibition of EZH2 in human A549 cells assessed as reduction in H3K27me3 expression level incubated for 72 hrs by Western blotting analysis. In kind it is cell-based. The following applies: dose 1-3 µM.
Target sequence in this assay (Q15910 whole entry, looked up): as the sequence (Q15910 whole entry) above

The structures appear in SMILES notation. pIC50: −log10 of the molar value. Active and inactive are the calls of the source. The rule behind the calls is not given here.

In the case of `COc1c(C)cccc1-c1cc(C(=O)NCc2c(C)cc(C)[nH]c2=O)c2ccc(=O)[nH]c2c1`, the pIC50 in assay [1] was 8.38; in [2], 7.98; in the assay on HeLa [3], less than 4.30; in the assay on A549 [4], 4.45.
The corresponding values for `Cc1cc(C)c(CNC(=O)c2cc(-c3ccc4ncccc4c3)cc3[nH]c(=O)ccc23)c(=O)[nH]1` are 8.08, 7.93, less than 4.30 and less than 4.30.
`CCN(c1cc(-c2ccc(CN3CCOCC3)cc2)cc(C(=O)NCc2c(C)cc(C)[nH]c2=O)c1C)C1CCOCC1` [TAZEMETOSTAT]: the figures for the pIC50 in the assay on HeLa [3] and in the assay on A549 [4] were 4.56 and 4.80, respectively. Also, the Activity in the assay on A549 [5] is 45%; in the assay on HeLa [6] it was 47%; in the assay on A549 [7] it was 34.3%; in the assay on A549 [8], 2.3%; in the assay with A549 [9], 52.6%; in the assay on A549 [10], 10.8%. The Activity is reported as 74% with HeLa [11], 5.21% in the assay with HeLa [12], 19.6% with HeLa [13] and 1.2% in the assay on HeLa [14].
As for `Cc1ccc(-c2cc(C(=O)NCc3c(C)cc(C)[nH]c3=O)c3ccc(=O)[nH]c3c2)cc1`, the pIC50 in [1] is 8.56; in [2], 8.11; with HeLa [3] it was 4.47; in the assay on A549 [4], 4.56.
As for `Cc1cc(C)c(CNC(=O)c2cc(-c3ccc(-c4ccccc4)cc3)cc3[nH]c(=O)ccc23)c(=O)[nH]1`, the negative-log IC50 (pIC50) is 8.78 in [1], 8.13 in [2], 4.53 with HeLa [3] and 4.87 in the assay with A549 [4]. For the same compound, the Activity in the assay on A549 [5] was found to be 42%; with A549 [7], 38.4%; with A549 [8] it was 10.1%; in the assay with A549 [9], 47.3%; in the assay with A549 [10], 3.6%.
As to `Cc1cc(C)c(CNC(=O)c2cc(-c3ccccc3)cc3[nH]c(=O)ccc23)c(=O)[nH]1`, the pIC50 was 8.20 in [1], 7.99 in [2], 4.36 with HeLa [3] and 4.71 with A549 [4].
The like results for `COc1cccc(OC)c1-c1cc(C(=O)NCc2c(C)cc(C)[nH]c2=O)c2ccc(=O)[nH]c2c1` were, in that order, 8.23, 8.05, less than 4.30 and 4.42.
The corresponding values for `Cc1cc(C)c(CNC(=O)c2cc(-c3ccc(Oc4ccccc4)cc3)cc3[nH]c(=O)ccc23)c(=O)[nH]1` are 8.09, 8.03, 4.33 and less than 4.30.
The corresponding values for `Cc1cc(C)c(CNC(=O)c2cc(-c3cccnc3)cc3[nH]c(=O)ccc23)c(=O)[nH]1` are 8.42, 8.07, 4.32 and 4.61.
As to `Cc1cc(C)c(CNC(=O)c2cc(-c3cccc4ccccc34)cc3[nH]c(=O)ccc23)c(=O)[nH]1`, the pIC50 in [1] is 8.13; in assay [2], 7.91; with HeLa [3] it was less than 4.30; with A549 [4], 4.52.
Turning to `Cc1cc(C)c(CNC(=O)c2cc(-c3ccc(C(=O)O)cc3)cc3[nH]c(=O)ccc23)c(=O)[nH]1`, the negative logarithm of the IC50 (pIC50) in [1] was 8.67; in [2], 8.19; with HeLa [3], 4.69; with A549 [4] it was 4.89. Besides, the Activity in the assay on A549 [5] stood at 58%; with HeLa [6], 49%.
`COc1ccc2cc(-c3cc(C(=O)NCc4c(C)cc(C)[nH]c4=O)c4ccc(=O)[nH]c4c3)ccc2c1`: the negative-log IC50 (pIC50) in [1] was 8.18; in assay [2] it was 8.13; with HeLa [3], less than 4.30; in the assay on A549 [4], 4.69.
Consider `COc1cc(-c2cc(C(=O)NCc3c(C)cc(C)[nH]c3=O)c3ccc(=O)[nH]c3c2)ccc1F`, for which the negative logarithm of the IC50 (pIC50) in assay [1] is 9.03; in assay [2] it was 8.27; in the assay with HeLa [3], 4.74; with A549 [4], 4.91. The Activity turned out to be 46% with A549 [5]; 39% in the assay with HeLa [6]; 78.2% in the assay on A549 [7]; 3.63% with A549 [8]; 17.3% in the assay with A549 [9]; 0.8% with A549 [10]. For the same compound, the Activity in the assay with HeLa [11] is 58.5%; with HeLa [12], 5.85%; in the assay on HeLa [13], 33.3%; in the assay on HeLa [14], 4.32%. For the same compound, the inhibition entry (in the assay on HeLa [15]; in assay [16]) was “Active” throughout.
As for `Cc1cc(C)c(CNC(=O)c2cc(-c3ccc(Br)cc3)cc3[nH]c(=O)ccc23)c(=O)[nH]1`, the negative-log IC50 (pIC50) in [1] is 9.00; in assay [2], 8.25; in the assay on HeLa [3], 4.60; in the assay on A549 [4] it was 4.96. Besides, the Activity in the assay with A549 [5] was found to be 40%; with HeLa [6] it was 45%; with A549 [7], 34.7%; with A549 [8], 12.4%; in the assay with A549 [9], 51.8%; in the assay with A549 [10] it was 1.07%. In addition, the figures for the Activity with HeLa [12] and in the assay with HeLa [13] were 4.72% and 16.5%, respectively. In addition, the inhibition result in the assay on HeLa [15] was “Active”. Also, the inhibition result in assay [17] is “Dose-Dependent Effect”.
